This is an account of results in patent US10011595B2 (Merck Sharp & Dohme Corp., priority 2014, dated 2018).

In general, IC50 refers to the point on the concentration scale where inhibition reaches its midpoint.

Sequence of human orexin-2 receptor (O43614 whole entry): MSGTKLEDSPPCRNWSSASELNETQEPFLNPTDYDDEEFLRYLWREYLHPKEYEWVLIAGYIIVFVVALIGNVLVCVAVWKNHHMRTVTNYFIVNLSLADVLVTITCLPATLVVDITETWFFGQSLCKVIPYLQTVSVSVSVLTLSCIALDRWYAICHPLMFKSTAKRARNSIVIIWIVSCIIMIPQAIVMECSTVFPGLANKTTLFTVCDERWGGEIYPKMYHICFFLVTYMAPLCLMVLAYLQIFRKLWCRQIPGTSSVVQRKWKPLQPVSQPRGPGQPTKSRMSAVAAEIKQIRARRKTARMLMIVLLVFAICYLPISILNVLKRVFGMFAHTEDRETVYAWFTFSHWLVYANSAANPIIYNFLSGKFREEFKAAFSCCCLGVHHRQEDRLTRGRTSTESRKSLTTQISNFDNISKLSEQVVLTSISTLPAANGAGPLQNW

This assay addresses human orexin-2 receptor (Homo sapiens (Human), UniProt O43614). Kind of assay: FLIPR Ca2+ Flux Assay, orexin-2 receptor. Type of assay: cell-based. Particulars: CHO cells expressing the human orexin-2 receptor; agonist 70 pM Ala-6,12 orexin-A; read-out: hOX2R FLIPR IC50. Put shortly: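 CHO cells expressing rat OX1 or human OX2 receptor, Fluo-4AM loaded 60 min; compound preincubated 5 min before 70 pM Ala-6,12 human orexin-A in HBSS/20 mM HEPES/0.1% BSA/2.5 mM probenecid, pH 7.4. FLIPR peak fluorescence over 5 min versus agonist-only response gives IC50.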
Background: Calcium flux is commonly read through the fluorescence of an indicator in the cells.
As to `CCN(CCN(C)c1nc(C)cc(C)n1)C(=O)c1nccnc1N1CCCC1` [Example B-25, N-{2-[(4,6-dimethylpyrimidin-2-yl)(methyl)amino]ethyl}-N-ethyl-3-pyrrolidin-1-ylpyrazine-2-carboxamide], the IC50 is 324 nM.
In the case of `CN(CCN(C)c1cc(C#N)ccn1)C(=O)c1ccccc1-n1nccn1` [Example G-1, N-(2-((4-cyanopyridin-2-yl)(methyl)amino)ethyl)-N-methyl-2-(2H-1,2,3-triazol-2-yl)benzamide], the IC50 was 88 nM.
To `CCN(CCN(C)c1nc(C)cc(C)n1)C(=O)c1ccccc1CC(F)F` [Example B-23, 2-(2,2-difluoroethyl)-N-{2-[(4,6-dimethylpyrimidin-2-yl)(methyl)amino]ethyl}-N-ethylbenzamide] belongs 94.9 nM; to `CCN(CCN(C)c1nccc(C(C)(C)O)n1)C(=O)c1ccccc1CC(F)(F)F` [Example H-21, N-ethyl-N-(2-((4-(2-hydroxypropan-2-yl)pyrimidin-2-yl)(methyl)amino)ethyl)-2-(2,2,2-trifluoroethyl)benzamide], 18 nM; to `CCN(CCN(C)c1nccc(C#N)c1Cl)C(=O)c1ccccc1-n1nccn1` [Example E-8, N-{2-[(3-chloro-4-cyanopyridin-2-yl)(methyl)amino]ethyl}-N-ethyl-2-(2H-1,2,3-triazol-2-yl)benzamide], 110 nM.
In the case of `CCN(CCN(C)c1nc(C)cc(C)n1)C(=O)c1cccnc1OC(C)C` [Example B-5, N-(2-((4,6-dimethylpyrimidin-2-yl)(methyl)amino)ethyl)-N-ethyl-2-isopropoxynicotinamide], the IC50 is 80 nM.
To `CCN(CCN(C)c1cc(C#N)ccn1)C(=O)c1ccccc1-n1ccnn1` [Example F-28, N-{2-[(4-cyanopyridin-2-yl)(methyl)amino]ethyl}-N-ethyl-2-(1H-1,2,3-triazol-1-yl)benzamide] belongs 461 nM.
Consider `CCN(CCN(C)c1cc(C#N)ccn1)C(=O)c1ccccc1C1(C#N)CCOCC1` [Example F-10, N-{2-[(4-cyanopyridin-2-yl)(methyl)amino]ethyl}-2-(4-cyanotetrahydro-2H-pyran-4-yl)-N-ethylbenzamide], for which the IC50 worked out at 7200 nM.
In the case of `CC(C)CN(CCN(C)c1cc(C#N)ccn1)C(=O)c1ccccc1-n1nccn1` [Example G-8, N-(2-((4-cyanopyridin-2-yl)(methyl)amino)ethyl)-N-isobutyl-2-(2H-1,2,3-triazol-2-yl)benzamide], the IC50 came out at 12.2 nM.
Consider `CCN(CCN(C)c1cc(C#N)ccn1)C(=O)c1ccccc1N1CCCC1` [Example F-22, N-{2-[(4-cyanopyridin-2-yl)(methyl)amino]ethyl}-N-ethyl-2-pyrrolidin-1-ylbenzamide], for which the IC50 is 31.8 nM.
Then `CCOc1nc2cccc(C(=O)N(CC)CCN(C)c3cc(C#N)ccn3)c2[nH]1` [Example F-19, N-{2-[(4-cyanopyridin-2-yl)(methyl)amino]ethyl}-2-ethoxy-N-ethyl-1H-benzimidazole-7-carboxamide], with 10000 nM.
To `CCN(CCN(CC(F)F)c1nc(C)cc(C)n1)C(=O)c1ccccc1-n1nccn1` [Example D-1, N-(2-((2,2-difluoroethyl)(4,6-dimethylpyrimidin-2-yl)amino)ethyl)-N-ethyl-2-(2H-1,2,3-triazol-2-yl)benzamide] belongs 56.1 nM; to `CCN(CCN(C)c1cccc(C(C)(C)O)n1)C(=O)c1cccnc1OC(C)C` [Example I-21, N-ethyl-N-(2-((6-(2-hydroxypropan-2-yl)pyridin-2-yl)(methyl)amino)ethyl)-2-isopropoxynicotinamide], 387 nM.
To `CCN(CCN(C)c1nccc(C(C)(C)O)n1)C(=O)c1ccc(OC)nc1C1CC1` [Example H-28, 2-cyclopropyl-N-ethyl-N-(2-((4-(2-hydroxypropan-2-yl)pyrimidin-2-yl)(methyl)amino)ethyl)-6-methoxynicotinamide] belongs 20 nM.
For the compound `CCN(CCN(C)c1nc(C)cc(C)n1)C(=O)c1ccccc1-n1ncnn1` [Example B-31, N-{2-[(4,6-dimethylpyrimidin-2-yl)(methyl)amino]ethyl}-N-ethyl-2-(2H-tetrazol-2-yl)benzamide], the IC50 was found to be 8.8 nM.
Regarding `CCN(CCN(C)c1nc(C)cc(C)n1)C(=O)c1ccccc1CC(F)(F)F` [Example B-18, N-{2-[(4,6-dimethylpyrimidin-2-yl)(methyl)amino]ethyl}-N-ethyl-2-(2,2,2-trifluoroethyl)benzamide], the IC50 is 36.2 nM.
`CCN(CCN(C)c1nccc(C(C)(C)O)n1)C(=O)c1cccnc1OCC(F)(F)F` [Example H-17]: the IC50 worked out at 21.7 nM.
As to `CCN(CCN(C)c1nccc(C(C)(C)O)n1)C(=O)c1ccccc1C1CC1` [Example H-25, 2-cyclopropyl-N-ethyl-N-(2-((4-(2-hydroxypropan-2-yl)pyrimidin-2-yl)(methyl)amino)ethyl) benzamide], the half-inhibitory concentration (IC50) is 9.1 nM.
To `CCCc1ccccc1C(=O)N(CC)CCN(C)c1nccc(C(C)(C)O)n1` [Example H-19, N-ethyl-N-(2-((4-(2-hydroxypropan-2-yl)pyrimidin-2-yl)(methyl)amino)ethyl)-2-propylbenzamide] belongs 13.1 nM.
On to `CCN(CCN(C)c1nccc(C(C)(C)O)n1)C(=O)c1ncccc1-n1nccn1` [Example H-34, N-ethyl-N-[2-[[4-(1-hydroxy-1-methyl-ethyl)pyrimidin-2-yl]-methyl-amino]ethyl]-3-(triazol-2-yl)pyridine-2-carboxamide], for which the IC50 worked out at 43 nM.
Turning to `CCN(CCN(C)c1cccc(C(C)(C)O)n1)C(=O)c1ccccc1OC(F)F` [Example I-14, 2-(difluoromethoxy)-N-ethyl-N-(2-((6-(2-hydroxypropan-2-yl)pyridin-2-yl)(methyl)amino)ethyl)benz-amide], the IC50 was 201 nM.
To `CCN(CCN(C)c1nc(C)cc(C)n1)C(=O)c1cccnc1OCC(F)F` [Example B-10, 2-(2,2-difluoroethoxy)-N-(2-((4,6-dimethylpyrimidin-2-yl)(methyl)amino)ethyl)-N-ethylnicotinamide] belongs 40.6 nM; to `CCN(CCN(C)c1nc(C)cc(C)n1)C(=O)c1nccnc1-n1nccn1` [Example B-15, N-(2-((4,6-dimethylpyrimidin-2-yl)(methyl)amino)ethyl)-N-ethyl-3-(2H-1,2,3-triazol-2-yl)pyrazine-2-carboxamide], 1270 nM; to `CCN(CCN(C)c1cc(C#N)ccn1)C(=O)c1ccccc1OC(F)(F)F` [Example F-1, {2-[(4-cyanopyridin-2-yl)(methyl)amino]ethyl}-N-ethyl-2-(trifluoromethoxy)benzamide], 58.2 nM.
`CCN(CCN(C)c1cccc(C(C)(C)O)n1)C(=O)c1ccccc1-n1ncnn1` [Example I-23, N-ethyl-N-(2-((6-(2-hydroxypropan-2-yl)pyridin-2-yl)(methyl)amino)ethyl)-2-(2H-tetrazol-2-yl)benzamide]: the IC50 was 69.6 nM.
Turning to `CCN(CCN(C)c1cc(C#N)ccn1)C(=O)c1ccccc1C1(C#N)CC1` [Example F-26, 2-(1-cyanocyclopropyl)-N-{2-[(4-cyanopyridin-2-yl)(methyl)amino]ethyl}-N-ethylbenzamide], the IC50 is 18.9 nM.
As for `CCN(CCN(C)c1nc(C)cc(C)n1)C(=O)c1ccccc1OCC(F)F` [Example B-20, 2-(2,2-difluoroethoxy)-N-{2-[(4,6-dimethylpyrimidin-2-yl)(methyl)amino]ethyl}-N-ethylbenzamide], the IC50 came to 9.2 nM.
Then `CCN(CCN(C)c1cccc(C(C)(C)O)n1)C(=O)c1ccccc1-n1nccn1` [Example I-1, N-ethyl-N-(2-((6-(2-hydroxypropan-2-yl)pyridin-2-yl)(methyl)amino)ethyl)-2-(2H-1,2,3-triazol-2-yl)benzamide], with 12.4 nM; and `CCN(CCN(C)c1cc(C#N)ccn1)C(=O)c1ccc(OCC(F)(F)F)nc1` [Example F-31, N-{2-[(4-cyanopyridin-2-yl)(methyl)amino]ethyl}-N-ethyl-6-(2,2,2-trifluoroethoxy)pyridine-3-carboxamide], with 10000 nM.
For the compound `CCN(CCN(C)c1nccc(C(C)(C)O)n1)C(=O)c1cccnc1-c1ccccc1` [Example H-30, N-ethyl-N-(2-((4-(2-hydroxypropan-2-yl)pyrimidin-2-yl)(methyl)amino)ethyl)-2-phenylnicotinamide], the IC50 is 53 nM.
To `CCOc1ccccc1C(=O)N(CC)CCN(C)c1nc(C)cc(C)n1` [Example B-13, N-(2-((4,6-dimethylpyrimidin-2-yl)(methyl)amino)ethyl)-2-ethoxy-N-ethylbenzamide] belongs 16 nM; to `CCOc1ncccc1C(=O)N(CC)CCN(C)c1nc(C)cc(C)n1` [Example B-6, N-(2-((4,6-dimethylpyrimidin-2-yl)(methyl)amino)ethyl)-2-ethoxy-N-ethylnicotinamide], 68.1 nM.
Regarding `CCN(CCN(C)c1cc(C#N)ccn1)C(=O)c1cccnc1C(F)(F)F` [Example F-8, N-{2-[(4-cyanopyridin-2-yl)(methyl)amino]ethyl}-N-ethyl-2-(trifluoromethyl)pyridine-3-carboxamide], the IC50 is 1990 nM.
